Data on 43 molecules can be found in patent US20250171459A1, “2-METHYL-4',5'-DIHYDROSPIRO[PIPERIDINE-4,7'-THIENO[2,3-C]PYRAN] DERIVATIVES AS INHIBITORS OF APOL1 AND METHODS OF USING SAME” (Vertex Pharmaceuticals Incorporated, priority 2022, published 2025).

This experiment addresses T1, APOL1 (Homo sapiens, UniProt O14791).
T1 sequence (O14791 1-398 S342G/I384M): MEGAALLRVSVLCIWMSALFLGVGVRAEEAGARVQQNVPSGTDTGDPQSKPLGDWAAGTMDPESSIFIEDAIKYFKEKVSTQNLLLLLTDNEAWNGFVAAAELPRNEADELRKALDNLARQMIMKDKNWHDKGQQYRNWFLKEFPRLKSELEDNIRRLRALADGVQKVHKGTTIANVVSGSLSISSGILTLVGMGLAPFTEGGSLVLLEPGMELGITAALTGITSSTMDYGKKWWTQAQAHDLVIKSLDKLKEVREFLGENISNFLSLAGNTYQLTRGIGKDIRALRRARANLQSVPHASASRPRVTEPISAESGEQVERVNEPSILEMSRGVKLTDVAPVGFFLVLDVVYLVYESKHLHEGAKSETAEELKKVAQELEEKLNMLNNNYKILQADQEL
As to the kind of experiment: MultiTox-Fluor Multiplex Cytotoxicity Assay in tet-inducible APOL1 T-REx-HEK293 cells (cell rescue, ratio of dead to live cells). The experiment is classed as cell-based. The settings on record: tet-inducible transgenic APOL1 T-REx-HEK293 cell lines, 50 ng/mL tet, 24 hours; read-out: IP50 (i.e., IC50 for cell proliferation). The method in brief: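 T-REx-HEK293 cells with tet-inducible APOL1 were treated with compound (10 μM top, 10-point 3-fold dilution, duplicate) plus 50 ng/mL tetracycline for 24 h at 37° C, in DMEM with 2% tet-free FBS. MultiTox-Fluor protease signals gave a dead/live ratio, normalized to no tet (100% viability) and tet alone (0%).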

Turning to `CCc1cc2c(s1)CCO[C@@]21CCN(C[C@H]2C[C@@H](NC(=O)OCC3CC3)C2)[C@@H](C)C1` [Compound 378], the IC50 lay in the range of 100 to 500 nM. To `CCc1cc2c(s1)CCO[C@@]21CCN(C[C@H]2C[C@@H](NC(=O)Oc3ccc(OC)cc3)C2)[C@@H](C)C1` [Compound 379] belongs less than 100 nM. For `CCc1cc2c(s1)CCO[C@@]21CCN(C[C@H]2C[C@@H](NC(=O)OCc3ccccc3)C2)[C@@H](C)C1` [Compound 380], the IC50 lay in the range of 100 to 500 nM.

With `CCc1cc2c(s1)CCO[C@@]21CCN(C[C@H]2C[C@@H](NC(=O)OCc3ccccc3Cl)C2)[C@@H](C)C1` [Compound 381], the IC50 is 100 to 500 nM. The value for `CCc1cc2c(s1)CCO[C@@]21CCN(C[C@H]2C[C@@H](NC(=O)Oc3ccc(Cl)cc3)C2)[C@@H](C)C1` [Compound 382] was less than 100 nM. As for `CCc1cc2c(s1)CCO[C@@]21CCN(C[C@H]2C[C@@H](NC(=O)OCC3CCCCC3)C2)[C@@H](C)C1` [Compound 383], the IC50 was 100 to 500 nM. To `CCc1cc2c(s1)CCO[C@@]21CCN(C[C@H]2C[C@@H](NC(C)=O)C2)[C@@H](C)C1` [Compound 384] belongs 100 to 500 nM; to `CCc1cc2c(s1)CCO[C@@]21CCN(CC2CC(NC(=O)CCCCCOCCOCCOCCOCCCCCCCl)C2)[C@@H](C)C1` (stereo partly drawn) [Compound 385, 6-[2-[2-[2-(6-chlorohexoxy)ethoxy]ethoxy]ethoxy]-N-[3-[[(2′S,4R)-2-ethyl-2′-methyl-spiro[6,7-dihydrothieno[3,2-c]pyran-4,4′-piperidine]-1′-yl]methyl]cyclobutyl]hexanamide], 100 to 500 nM; to `CCc1cc2c(s1)CCO[C@@]21CCN(C[C@H]2C[C@@H](NC(=O)OCCOCCOCCOC(=O)NCCOCCOCCCCCCCl)C2)[C@@H](C)C1` [Compound 386, 2-[2-[2-[[3-[[(2′S,4R)-2-ethyl-2′-methyl-spiro[6,7-dihydrothieno[3,2-c]pyran-4,4′-piperidine]-1′-yl]methyl]cyclobutyl]carbamoyloxy]ethoxy]ethoxy]ethyl N-[2-[2-(6-chlorohexoxy)ethoxy]ethyl]carbamate], less than 100 nM. To `CCc1cc2c(s1)CCO[C@@]21CCN(C[C@H]2C[C@@H](NC(=O)C(F)(F)F)C2)[C@@H](C)C1` [Compound 387, N-[3-[[(2′S,4R)-2-ethyl-2′-methyl-spiro[6,7-dihydrothieno[3,2-c]pyran-4,4′-piperidine]-1′-yl]methyl]cyclobutyl]-2,2,2-trifluoro-acetamide] belongs 100 to 500 nM.

Take `CCc1cc2c(s1)CCO[C@@]21CCN(C[C@H]2C[C@@H](NS(=O)(=O)CCO)C2)[C@@H](C)C1` [Compound 388, N-[3-[[(2′S,4R)-2-ethyl-2′-methyl-spiro[6,7-dihydrothieno[3,2-c]pyran-4,4′-piperidine]-1′-yl]methyl]cyclobutyl]-2-hydroxy-ethanesulfonamide]: the IC50 is less than 100 nM. The value for `CCc1cc2c(s1)CCO[C@@]21CCN(C[C@H]2C[C@@H](NS(=O)(=O)CC#N)C2)[C@@H](C)C1` [Compound 389] was less than 100 nM; that for `CCc1cc2c(s1)CCO[C@@]21CCN(C[C@H]2C[C@@H](NS(=O)(=O)C3CC3)C2)[C@@H](C)C1` [Compound 390] was less than 100 nM. To `CCc1cc2c(s1)CCO[C@@]21CCN(C[C@H]2C[C@@H](NS(=O)(=O)c3ccc(C#N)cc3)C2)[C@@H](C)C1` [Compound 391] belongs less than 100 nM.

As for `CCc1cc2c(s1)CCO[C@@]21CCN(C[C@H]2C[C@@H](NS(=O)(=O)CC(=O)OC)C2)[C@@H](C)C1` [Compound 392], the IC50 lay in the range of 500 to 1000 nM. To `CCc1cc2c(s1)CCO[C@@]21CCN(C[C@H]2C[C@@H](NS(=O)(=O)Cc3cccc(C)c3)C2)[C@@H](C)C1` [Compound 393] belongs less than 100 nM; to `CCc1cc2c(s1)CCO[C@@]21CCN(C[C@H]2C[C@@H](NS(=O)(=O)CC)C2)[C@@H](C)C1` [Compound 394], less than 100 nM. To `CCc1cc2c(s1)CCO[C@@]21CCN(C[C@H]2C[C@@H](NS(=O)(=O)C(C)C)C2)[C@@H](C)C1` [Compound 395] belongs less than 100 nM. With `CCc1cc2c(s1)CCO[C@@]21CCN(C[C@H]2C[C@@H](NS(=O)(=O)c3cccc(OC)c3)C2)[C@@H](C)C1` [Compound 396], the IC50 is less than 100 nM.

Turning to `CCc1cc2c(s1)CCO[C@@]21CCN(C[C@H]2C[C@@H](NS(=O)(=O)c3ccccc3)C2)[C@@H](C)C1` [Compound 397], the IC50 is less than 100 nM. To `CCc1cc2c(s1)CCO[C@@]21CCN(C[C@H]2C[C@@H](NS(=O)(=O)Cc3ccccc3)C2)[C@@H](C)C1` [Compound 398] belongs less than 100 nM.

Regarding `CCc1cc2c(s1)CCO[C@@]21CCN(C[C@H]2C[C@@H](NS(=O)(=O)c3ccc(F)cc3)C2)[C@@H](C)C1` [Compound 399], the IC50 was less than 100 nM. To `CCc1cc2c(s1)CCO[C@@]21CCN(C[C@H]2C[C@@H](NS(=O)(=O)c3cccc(C#N)c3)C2)[C@@H](C)C1` [Compound 400] belongs less than 100 nM. The value for `CCc1cc2c(s1)CCO[C@@]21CCN(C[C@H]2C[C@@H](NS(=O)(=O)C3COC3)C2)[C@@H](C)C1` [Compound 401] was less than 100 nM; that for `CCc1cc2c(s1)CCO[C@@]21CCN(C[C@H]2C[C@@H](NS(=O)(=O)c3ccc(OC)cc3)C2)[C@@H](C)C1` [Compound 402] was less than 100 nM; that for `CCc1ccc(S(=O)(=O)N[C@H]2C[C@@H](CN3CC[C@]4(C[C@@H]3C)OCCc3sc(CC)cc34)C2)s1` [Compound 403] was less than 100 nM. Turning to `CCc1cc2c(s1)CCO[C@@]21CCN(C[C@H]2C[C@@H](NS(=O)(=O)c3ccccc3OC)C2)[C@@H](C)C1` [Compound 404], the IC50 is less than 100 nM. For `CCc1cc2c(s1)CCO[C@@]21CCN(C[C@H]2C[C@@H](NS(=O)(=O)c3cccs3)C2)[C@@H](C)C1` [Compound 405], the IC50 is less than 100 nM.

Consider `CCc1cc2c(s1)CCO[C@@]21CCN(C[C@H]2C[C@@H](NS(=O)(=O)c3cccc(C)c3)C2)[C@@H](C)C1` [Compound 406], for which the IC50 is less than 100 nM.

Consider `CCc1cc2c(s1)CCO[C@@]21CCN(C[C@H]2C[C@@H](NS(=O)(=O)c3cncc(Cl)c3)C2)[C@@H](C)C1` [Compound 407], for which the IC50 is less than 100 nM. Regarding `CCc1cc2c(s1)CCO[C@@]21CCN(C[C@H]2C[C@@H](NS(=O)(=O)c3ccccc3F)C2)[C@@H](C)C1` [Compound 408], the IC50 was less than 100 nM. To `CCc1cc2c(s1)CCO[C@@]21CCN(C[C@H]2C[C@@H](NS(=O)(=O)c3ccccc3Cl)C2)[C@@H](C)C1` [Compound 409] belongs less than 100 nM; to `CCc1cc2c(s1)CCO[C@@]21CCN(C[C@H]2C[C@@H](NS(C)(=O)=O)C2)[C@@H](C)C1` [Compound 410], less than 100 nM. For the molecule `CCc1cc2c(s1)CCO[C@@]21CCN(C[C@H]2C[C@@H](NS(=O)(=O)C(F)(F)F)C2)[C@@H](C)C1` [Compound 411], the IC50 is 100 to 500 nM.

As to `CCc1cc2c(s1)CCO[C@@]21CCN(C[C@H]2C[C@@H](NS(=O)(=O)c3cnccc3Cl)C2)[C@@H](C)C1` [Compound 412], the IC50 is less than 100 nM. Turning to `CCc1cc2c(s1)CCO[C@@]21CCN(C[C@H]2C[C@@H](NS(=O)(=O)c3ccc(C(N)=O)cc3)C2)[C@@H](C)C1` [Compound 413], the IC50 is less than 100 nM.

`CCc1cc2c(s1)CCO[C@@]21CCN(C[C@H]2C[C@@H](NS(=O)(=O)CCC3NC(=O)NC3=O)C2)[C@@H](C)C1` (stereo partly shown) [Compound 415]: the IC50 is 100 to 500 nM. To `CCc1cc2c(s1)CCO[C@@]21CCN(C[C@H]2C[C@@H](NS(=O)(=O)c3ccc4[nH]c(=O)[nH]c4c3)C2)[C@@H](C)C1` [Compound 416] belongs 100 to 500 nM; to `CCc1cc2c(s1)CCO[C@@]21CCN(C[C@H]2C[C@@H](NS(=O)(=O)CCCO)C2)[C@@H](C)C1` [Compound 417], 500 to 1000 nM. Take `CCc1cc2c(s1)CCO[C@@]21CCN(C[C@H]2C[C@H](NC(=O)OC(C)(C)C)C2)[C@@H](C)C1` [Compound 418, tert-butyl N-[3-[[(2′S,4R)-2-ethyl-2′-methyl-spiro[6,7-dihydrothieno[3,2-c]pyran-4,4′-piperidine]-1′-yl]methyl]cyclobutyl]carbamate]: the IC50 lay in the range of 100 to 500 nM.

For the molecule `CCc1cc2c(s1)CCO[C@@]21CCN(C[C@H]2C[C@H](N)C2)[C@@H](C)C1` [Compound 419, 3-[[(2′S,4R)-2-ethyl-2′-methyl-spiro[6,7-dihydrothieno[3,2-c]pyran-4,4′-piperidine]-1′-yl]methyl]cyclobutanamine], the IC50 was 500 to 1000 nM. For the molecule `CCc1cc2c(s1)CCO[C@@]21CCN(CC2CN(C(=O)OC(C)(C)C)C2)[C@@H](C)C1` [Compound 420, tert-butyl 3-[[(2′S,4R)-2-ethyl-2′-methyl-spiro[6,7-dihydrothieno[3,2-c]pyran-4,4′-piperidine]-1′-yl]methyl]azetidine-1-carboxylate], the IC50 is less than 100 nM. To `CCc1cc2c(s1)CCO[C@@]21CCN(CC2CNC2)[C@@H](C)C1` [Compound 421, (2′S,4R)-1′-(azetidin-3-ylmethyl)-2-ethyl-2′-methyl-spiro[6,7-dihydrothieno[3,2-c]pyran-4,4′-piperidine]] belongs 500 to 1000 nM.
